One block for each compound: values may come before it.
Experiments:
[1] = molecular target: T1, Transient receptor potential cation channel subfamily V member 1 (Homo sapiens, UniProt Q8NER1); experiment: Antagonist activity at human TRPV1 expressed in HEK293 cells assessed as inhibition of capsaicin-induced Ca2+ influx by fluorescence based assay; assay type: cell-based
Mus musculus = species: Mus musculus; experiment: Antipruritic effect in mouse assessed as reduction in histamine-induced itching duration relative to control; assay type: functional; parameters: scale not given: the % may be the effect or the level left
[2] = molecular target: T1, Transient receptor potential cation channel subfamily V member 1; experiment: Antagonist activity at human TRPV1
[3] = molecular target: T1, Transient receptor potential cation channel subfamily V member 1; experiment: Binding affinity to human TRPV1 assessed as inhibition constant
[4] = molecular target: T1, Transient receptor potential cation channel subfamily V member 1; experiment: Antagonist activity at human TRPV1 assessed as inhibition of capsaicin-induced increase in intracellular Ca2+ level; assay type: cell-based
[5] = molecular target: T2, Prostaglandin G/H synthase 2 (Homo sapiens, UniProt P35354); experiment: Inhibition of COX-2 (unknown origin)
T2 sequence (P35354 whole entry): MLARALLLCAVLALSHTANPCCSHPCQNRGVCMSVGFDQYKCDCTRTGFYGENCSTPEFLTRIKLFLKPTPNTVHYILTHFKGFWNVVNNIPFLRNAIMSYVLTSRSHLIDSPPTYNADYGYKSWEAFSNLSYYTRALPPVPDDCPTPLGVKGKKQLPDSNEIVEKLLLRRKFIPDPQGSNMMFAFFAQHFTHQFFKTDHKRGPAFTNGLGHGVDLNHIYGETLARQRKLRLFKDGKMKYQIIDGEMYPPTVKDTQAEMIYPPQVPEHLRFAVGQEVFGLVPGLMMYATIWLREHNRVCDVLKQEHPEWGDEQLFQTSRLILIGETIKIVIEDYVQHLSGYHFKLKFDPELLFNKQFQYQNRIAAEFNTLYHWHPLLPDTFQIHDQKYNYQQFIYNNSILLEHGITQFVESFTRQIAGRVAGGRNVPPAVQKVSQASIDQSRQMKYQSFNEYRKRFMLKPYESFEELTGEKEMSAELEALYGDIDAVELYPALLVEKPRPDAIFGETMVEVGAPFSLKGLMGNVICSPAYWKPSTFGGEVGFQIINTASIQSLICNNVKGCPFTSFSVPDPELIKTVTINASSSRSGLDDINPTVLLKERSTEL

[6] = molecular target: T3, Transient receptor potential cation channel subfamily V member 1 (Rattus norvegicus, UniProt O35433); experiment: Inhibition of rat TRPV1 assessed as inhibition of capsaicin-induced increase in intracellular Ca2+ level; assay type: cell-based
T3 sequence (O35433 whole entry): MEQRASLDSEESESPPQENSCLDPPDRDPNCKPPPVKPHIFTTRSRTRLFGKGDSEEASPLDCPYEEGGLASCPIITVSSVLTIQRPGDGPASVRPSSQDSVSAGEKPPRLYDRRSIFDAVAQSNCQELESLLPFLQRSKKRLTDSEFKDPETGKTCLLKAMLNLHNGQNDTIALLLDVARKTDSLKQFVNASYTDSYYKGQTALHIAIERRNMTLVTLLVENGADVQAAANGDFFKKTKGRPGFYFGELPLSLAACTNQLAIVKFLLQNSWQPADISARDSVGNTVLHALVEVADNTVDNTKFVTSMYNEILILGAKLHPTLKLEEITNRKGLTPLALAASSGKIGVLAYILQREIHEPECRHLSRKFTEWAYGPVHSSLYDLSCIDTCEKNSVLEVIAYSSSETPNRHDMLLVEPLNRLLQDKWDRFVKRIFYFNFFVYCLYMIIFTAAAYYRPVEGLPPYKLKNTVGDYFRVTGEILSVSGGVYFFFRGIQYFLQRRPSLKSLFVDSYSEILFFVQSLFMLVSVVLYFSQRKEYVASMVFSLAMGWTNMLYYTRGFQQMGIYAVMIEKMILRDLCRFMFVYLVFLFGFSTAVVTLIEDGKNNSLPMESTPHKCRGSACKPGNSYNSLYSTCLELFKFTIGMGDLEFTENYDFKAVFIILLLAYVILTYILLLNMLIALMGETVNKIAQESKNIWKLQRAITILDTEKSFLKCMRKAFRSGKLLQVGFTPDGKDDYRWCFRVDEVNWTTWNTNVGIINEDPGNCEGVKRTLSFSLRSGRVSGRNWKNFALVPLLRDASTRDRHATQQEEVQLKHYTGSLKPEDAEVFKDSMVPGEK

[7] = molecular target: T1, Transient receptor potential cation channel subfamily V member 1; experiment: Antagonist activity at human TRPV1 assessed as inhibition of pH-induced increase in intracellular Ca2+ level; assay type: cell-based
[8] = molecular target: T1, Transient receptor potential cation channel subfamily V member 1; experiment: Antagonist activity at human TRPV1 expressed in HEK293 cells assessed as inhibition of NADA-induced increase in intracellular Ca2+ level incubated for 2 mins by scintillation counter analysis; assay type: cell-based
[9] = molecular target: T1, Transient receptor potential cation channel subfamily V member 1; experiment: Antagonist activity at human TRPV1 expressed in HEK293 cells assessed as inhibition of capsaicin-induced increase in intracellular Ca2+ level incubated for 2 mins by scintillation counter analysis; assay type: cell-based
[10] = molecular target: T3, Transient receptor potential cation channel subfamily V member 1; experiment: Antagonist activity at rat TRPV1 expressed in CHO cells assessed as inhibition of pH-induced increase in intracellular Ca2+ level by fluorescence based analysis; assay type: cell-based
[11] = Antagonist activity at Xenopus oocytes TRPV1 assessed as inhibition of capsaicin-induced increase in intracellular Ca2+ level; assay type: cell-based; conditions: Xenopus laevis
[12] = molecular target: T1, Transient receptor potential cation channel subfamily V member 1; experiment: Antagonist activity at capsaicin-induced human TRPV1 activation
[13] = molecular target: T1, Transient receptor potential cation channel subfamily V member 1; experiment: Antagonist activity at human TRPV1 assessed as inhibition of AITC-induced increase in intracellular Ca2+ level; assay type: cell-based
[14] = molecular target: T1, Transient receptor potential cation channel subfamily V member 1; experiment: Antagonist activity at human TRPV1 expressed in HEK293 cells assessed as inhibition of capsaicin-induced increase in intracellular Ca2+ level by FLIPR-based Ca2+ assay; assay type: cell-based
[15] = molecular target: T3, Transient receptor potential cation channel subfamily V member 1; experiment: Antagonist activity at rat TRPV1 assessed as inhibition of pH-induced increase in intracellular Ca2+ level; assay type: cell-based

T1 sequence (Q8NER1 whole entry): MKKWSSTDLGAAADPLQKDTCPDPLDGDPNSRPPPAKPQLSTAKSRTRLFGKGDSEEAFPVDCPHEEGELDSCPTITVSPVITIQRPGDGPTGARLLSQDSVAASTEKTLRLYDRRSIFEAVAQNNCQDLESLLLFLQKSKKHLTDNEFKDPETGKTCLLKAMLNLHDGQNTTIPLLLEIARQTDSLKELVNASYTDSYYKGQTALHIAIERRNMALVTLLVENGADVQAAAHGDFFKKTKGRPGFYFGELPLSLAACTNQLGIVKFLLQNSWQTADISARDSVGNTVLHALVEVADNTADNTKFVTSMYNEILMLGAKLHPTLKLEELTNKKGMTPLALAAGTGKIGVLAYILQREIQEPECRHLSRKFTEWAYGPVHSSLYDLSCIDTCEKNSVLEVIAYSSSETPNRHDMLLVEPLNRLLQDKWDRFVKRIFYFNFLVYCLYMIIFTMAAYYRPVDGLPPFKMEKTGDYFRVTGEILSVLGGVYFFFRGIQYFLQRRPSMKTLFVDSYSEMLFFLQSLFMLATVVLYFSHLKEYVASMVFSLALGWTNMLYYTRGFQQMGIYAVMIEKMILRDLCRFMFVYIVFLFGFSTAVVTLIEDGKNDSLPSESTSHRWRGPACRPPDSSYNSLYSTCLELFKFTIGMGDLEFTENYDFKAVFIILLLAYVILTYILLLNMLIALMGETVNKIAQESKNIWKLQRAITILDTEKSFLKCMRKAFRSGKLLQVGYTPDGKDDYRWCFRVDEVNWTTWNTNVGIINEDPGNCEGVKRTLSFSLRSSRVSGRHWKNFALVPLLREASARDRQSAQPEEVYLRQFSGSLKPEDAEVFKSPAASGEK

IC50 [1]: 22 nM
Compound: C=Cc1cc([C@@H](C)NC(=O)/C(C)=C/c2ccc(C(C)(C)C)cc2)ccc1NS(C)(=O)=O

Compound: CCCCCCCCCCCC(=O)OCC(=O)NCc1cc(OC)c(O)cc1I
Activity (Mus musculus): <1%

Compound: CN(C)C1(Cc2ccccc2)CCN(c2cc(C(F)(F)F)ccc2CNC(=O)Nc2cccc3ncccc23)CC1
IC50 [2]: 10.8 nM
Ki [3]: 32 nM

IC50 [4]: 2.6 nM
Compound: CC1CCN(c2nc(C(F)(F)F)ccc2CNC(=O)Cc2c(F)cccc2Cl)CC1

IC50 [5]: 11 nM
Compound: COc1cc(C(=O)NS(=O)(=O)c2ccc(-n3nc(C(F)(F)F)cc3-c3ccc(C)cc3)cc2)ccc1O

IC50 [6]: 140 nM
IC50 [5]: 23 nM
Compound: COc1cc(/C=C/C(=O)NS(=O)(=O)c2ccc(-n3nc(C(F)(F)F)cc3-c3ccc(C)cc3)cc2)ccc1O

IC50 [4]: 84 nM
IC50 [7]: 313 nM
Compound: O=C(Nc1ccc(Br)cc1)[C@@H]1CCCN1C(=O)Nc1cccc2cnccc12

IC50 [8]: 7 nM
IC50 [9]: 19 nM
Compound: CCC1(CC)CC(NC(=O)Nc2cccc3c(C)nccc23)c2cc(F)ccc2O1 (stereo unspecified)

IC50 [10]: 140 nM
Compound: O=C1/C(=N\Nc2ccccc2)C(C(F)(F)C(F)(F)F)=NN1c1ccccc1

IC50 [11]: 33300 nM
Compound: C[C@H]1O[C@H](O[C@H]2[C@H](Oc3cc(O)c4c(c3)O[C@H](c3ccc(O)cc3)CC4=O)O[C@H](CO)[C@@H](O)[C@@H]2O)[C@H](O)[C@@H](O)[C@H]1O

IC50 [12]: 9.8 nM
Compound: Cc1cc(C)nc(NC(=O)N2CCN(Cc3ccccc3N3CCCC3)CC2)c1

IC50 [4]: 45000 nM
Compound: O=C(C(c1ccccc1)N1C(=O)CCC1=O)N1CCN(c2cccc(C(F)(F)F)c2)CC1 (stereo unspecified)

IC50 [4]: 90 nM
Compound: COc1cc(CNC(=O)COC(=O)/C=C(\C)CC=C(C)C)c(I)cc1O

IC50 [4]: 9800 nM
IC50 [13]: 16200 nM
Compound: O=C1C[C@@H](c2ccc(O[C@@H]3O[C@H](CO)[C@@H](O)[C@H](O)[C@H]3O)cc2)Oc2cc(O)ccc21 [LIQUIRITIN]

IC50 [14]: 3 nM
IC50 [15]: 6 nM
Compound: O=C(Nc1ccccc1Br)N[C@@H]1CCN(c2ccc(C(F)(F)F)cn2)C1 [SB-705498]

— ChEMBL document CHEMBL5518160, “Progress in the development of TRPV1 small-molecule antagonists: Novel Strategies for pain management” (Eur J Med Chem, 2023)
